This assay deals with human APJ receptor (Homo sapiens (Human), UniProt P35414). The assay is described as follows: biochemical. Format: biochemical. Particulars: [35S]GTPγS binding, CHO membranes expressing human APJ receptor; read-out: Activity hAPJ SPA EC50 IP. The method, boiled down:
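Membranes of a stable CHO line carrying human APJ (pFLAG-CMV-3) were used in a GTPγS binding format; buffer GDP, MgCl2 and NaCl were optimized, and plates were read after 90 min at RT.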

Each structure is given as a SMILES string.

Chain of human APJ receptor (P35414 whole entry): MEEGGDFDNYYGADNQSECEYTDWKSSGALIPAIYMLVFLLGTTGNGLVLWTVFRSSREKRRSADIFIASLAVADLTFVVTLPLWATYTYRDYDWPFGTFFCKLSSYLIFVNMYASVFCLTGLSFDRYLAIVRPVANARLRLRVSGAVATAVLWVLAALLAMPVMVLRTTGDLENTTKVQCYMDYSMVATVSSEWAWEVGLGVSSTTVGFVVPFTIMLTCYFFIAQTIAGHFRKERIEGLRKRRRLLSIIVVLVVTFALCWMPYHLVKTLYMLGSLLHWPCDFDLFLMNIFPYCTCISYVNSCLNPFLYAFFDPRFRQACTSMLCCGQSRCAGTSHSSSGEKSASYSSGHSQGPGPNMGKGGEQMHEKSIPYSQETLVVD

The term EC50 denotes the concentration that produces a half-maximal response. As for `COc1cccc(OC)c1-n1c(NS(=O)(=O)[C@@H](C)[C@H](C)c2ncc(F)cn2)nnc1-c1cc(C)[nH]n1` [Example 268.0, (2S,3R)-N-(4-(2,6-dimethoxyphenyl)-5-(5-methyl-1H-pyrazol-3-yl)-4H-1,2,4-triazol-3-yl)-3-(5-fluoro-2-pyrimidinyl)-2-butanesulfonamide], the concentration for a half-maximal effect (EC50) was determined as 0.68 nM.

As for `COc1ccccc1-n1c(NS(=O)(=O)[C@@H](C)[C@H](C)c2ncc(F)cn2)nnc1-c1ccn(C)n1` [Example 269.0, (2S,3R)-3-(5-fluoro-2-pyrimidinyl)-N-(4-(2-methoxyphenyl)-5-(1-methyl-1H-pyrazol-3-yl)-4H-1,2,4-triazol-3-yl)-2-butanesulfonamide], the concentration giving a half-maximal response (EC50) turned out to be 8.7 nM.

Consider `COc1cccc(OC)c1-n1c(NS(=O)(=O)[C@H](C)[C@@H](C)c2cnc(C)cn2)nnc1-c1ccn(C)n1` [Example 281.0, (2R,3S)-N-(4-(2,6-dimethoxyphenyl)-5-(1-methyl-1H-pyrazol-3-yl)-4H-1,2,4-triazol-3-yl)-3-(5-methyl-2-pyrazinyl)-2-butanesulfonamide], for which the concentration giving a half-maximal response (EC50) was 84 nM.

Take `COc1cnc([C@@H](C)[C@H](C)S(=O)(=O)Nc2nnc(-c3ccn(C)n3)n2-c2c(OC)cccc2OC)cn1` [Example 287.0, (2S,3R)-N-(4-(2,6-dimethoxyphenyl)-5-(1-methyl-1H-pyrazol-3-yl)-4H-1,2,4-triazol-3-yl)-3-(5-methoxy-2-pyrazinyl)-2-butanesulfonamide]: the concentration for a half-maximal effect (EC50) amounted to 0.42 nM.

In the case of `COc1cnc([C@@H](C)[C@H](C)S(=O)(=O)Nc2nnc(-c3ccn(C)n3)n2-c2c(OC)ncnc2OC)cn1` [Example 292.0, (2S,3R)-N-(4-(4,6-dimethoxy-5-pyrimidinyl)-5-(1-methyl-1H-pyrazol-3-yl)-4H-1,2,4-triazol-3-yl)-3-(5-methoxy-2-pyrazinyl)-2-butanesulfonamide], the concentration for a half-maximal effect (EC50) amounted to 1.2 nM.

On to `COc1ncnc(OC)c1-n1c(NS(=O)(=O)[C@@H](C)[C@H](C)c2ncc(Cl)cn2)nnc1-c1ccn(C)n1` [Example 294.0, (2S,3R)-3-(5-chloro-2-pyrimidinyl)-N-(4-(4,6-dimethoxy-5-pyrimidinyl)-5-(1-methyl-1H-pyrazol-3-yl)-4H-1,2,4-triazol-3-yl)-2-butanesulfonamide], for which the EC50 came out at 0.49 nM.

For the molecule `COc1cnc([C@@H](C)[C@H](C)S(=O)(=O)Nc2nnc(-c3ccn(C)n3)n2-c2c(OC)cccc2OC)nc1` [Example 295.0, (2S,3R)-N-(4-(2,6-dimethoxyphenyl)-5-(1-methyl-1H-pyrazol-3-yl)-4H-1,2,4-triazol-3-yl)-3-(5-methoxy-2-pyrimidinyl)-2-butanesulfonamide], the EC50 turned out to be 0.4 nM.

Consider `COc1cnc([C@@H](C)[C@H](C)S(=O)(=O)Nc2nnc(-c3ccn(C)n3)n2-c2c(OC)ncnc2OC)nc1` [Example 296.0, (2S,3R)-N-(4-(4,6-dimethoxy-5-pyrimidinyl)-5-(1-methyl-1H-pyrazol-3-yl)-4H-1,2,4-triazol-3-yl)-3-(5-methoxy-2-pyrimidinyl)-2-butanesulfonamide], for which the half-maximal effective concentration (EC50) was found to be 2.7 nM.

For the molecule `COc1cnc([C@H](C)[C@H](C)S(=O)(=O)Nc2nnc(-c3ccn(C)n3)n2-c2c(OC)ncnc2OC)nc1` [Example 297.0], the EC50 came out at 0.14 nM.

For the molecule `COc1cnc([C@@H](C)[C@@H](C)S(=O)(=O)Nc2nnc(-c3ccn(C)n3)n2-c2c(OC)ncnc2OC)nc1` [Example 298.0], the EC50 was determined as 1 nM.

For the molecule `COc1cnc([C@H](C)[C@@H](C)S(=O)(=O)Nc2nnc(-c3ccn(C)n3)n2-c2c(OC)cccc2OC)cn1` [Example 301.0, (2R,3S)-N-(4-(2,6-dimethoxyphenyl)-5-(1-methyl-1H-pyrazol-3-yl)-4H-1,2,4-triazol-3-yl)-3-(5-methoxy-2-pyrazinyl)-2-butanesulfonamide], the EC50 came out at 11 nM.

Regarding `COc1cccc(OC)c1-n1c(NS(=O)(=O)[C@@H](C)[C@H](C)c2cnc(C)cn2)nnc1-c1ccn(C)n1` [Example 306.0, (2S,3R)-N-(4-(2,6-dimethoxyphenyl)-5-(1-methyl-1H-pyrazol-3-yl)-4H-1,2,4-triazol-3-yl)-3-(5-methyl-2-pyrazinyl)-2-butanesulfonamide], the EC50 worked out at 2.5 nM.

Take `COc1cccc(OC)c1-n1c(NS(=O)(=O)CCc2ccc(Cl)cc2)nnc1-c1cccs1` [Example 311.0, 2-(4-Chlorophenyl)-N-(4-(2,6-dimethoxyphenyl)-5-(thiophen-2-yl)-4H-1,2,4-triazol-3-yl)ethanesulfonamide]: the EC50 came to 3.8 nM.

As for `COc1ccc(S(C)(=O)=O)cc1-n1c(NS(=O)(=O)CCc2ccc(Cl)cc2)nnc1-c1cccs1` [Example 312.0, 2-(4-Chlorophenyl)-N-(4-(2-methoxy-5-(methylsulfonyl)phenyl)-5-(thiophen-2-yl)-4H-1,2,4-triazol-3-yl)ethanesulfonamide], the concentration giving a half-maximal response (EC50) is 76 nM.

Turning to `COc1cncc(-c2nnc(NS(=O)(=O)[C@@H](C)[C@H](OC)c3cnc(C)cn3)n2-c2c(OC)cccc2OC)n1` [Example 327.0, (1R,2S)-N-(4-(2,6-dimethoxyphenyl)-5-(6-methoxy-2-pyrazinyl)-4H-1,2,4-triazol-3-yl)-1-methoxy-1-(5-methyl-2-pyrazinyl)-2-propanesulfonamide], the concentration for a half-maximal effect (EC50) came out at 4 nM.

Consider `COc1cccc(OC)c1-n1c(NS(=O)(=O)[C@@H](C)[C@H](OC)c2ncc(C)cn2)nnc1-c1ncc(C)s1` [Example 331.0, (1R,2S)-N-(4-(2,6-Dimethoxyphenyl)-5-(5-methyl-1,3-thiazol-2-yl)-4H-1,2,4-triazol-3-yl)-1-methoxy-1-(5-methyl-2-pyrimidinyl)-2-propanesulfonamide], for which the 50% effective concentration (EC50) came out at 0.98 nM.

On to `COc1cccc(OC)c1-n1c(NS(=O)(=O)[C@@H](C)[C@H](OC)c2ncc(C)cn2)nnc1-c1ccc(C)s1` [Example 332.0, (1R,2S)-N-(4-(2,6-dimethoxyphenyl)-5-(5-methyl-2-thiophenyl)-4H-1,2,4-triazol-3-yl)-1-methoxy-1-(5-methyl-2-pyrimidinyl)-2-propanesulfonamide], for which the concentration for a half-maximal effect (EC50) stood at 0.37 nM.

For the molecule `COc1cccc(OC)c1-n1c(NS(=O)(=O)[C@@H](C)[C@H](OC)c2ncc(C)cn2)nnc1-c1cc(C)[nH]n1` [Example 333.0, (1R,2S)-N-(4-(2,6-dimethoxyphenyl)-5-(5-methyl-1H-pyrazol-3-yl)-4H-1,2,4-triazol-3-yl)-1-methoxy-1-(5-methyl-2-pyrimidinyl)-2-propanesulfonamide], the concentration giving a half-maximal response (EC50) amounted to 1.5 nM.

For the molecule `COc1cccc(OC)c1-n1c(NS(=O)(=O)[C@@H](C)[C@H](OC)c2ncc(C)cn2)nnc1-c1ccc(Cl)s1` [Example 334.0, (1R,2S)-N-(5-(5-chloro-2-thiophenyl)-4-(2,6-dimethoxyphenyl)-4H-1,2,4-triazol-3-yl)-1-methoxy-1-(5-methyl-2-pyrimidinyl)-2-propanesulfonamide], the EC50 is 0.52 nM.

Turning to `COc1ccc2[nH]c(-c3nnc(NS(=O)(=O)[C@@H](C)[C@H](OC)c4ncc(C)cn4)n3-c3c(OC)cccc3OC)cc2c1` [Example 336.0, (1R,2S)-N-(4-(2,6-dimethoxyphenyl)-5-(5-methoxy-1H-indo1-2-yl)-4H-1,2,4-triazol-3-yl)-1-methoxy-1-(5-methyl-2-pyrimidinyl)-2-propanesulfonamide], the EC50 turned out to be 310 nM.

In the case of `COc1cccc(OC)c1-n1c(NS(=O)(=O)[C@@H](C)[C@H](OC)c2ncc(C)cn2)nnc1-c1cnccn1` [Example 337.0, (1R,2S)-N-(4-(2,6-dimethoxyphenyl)-5-(2-pyrazinyl)-4H-1,2,4-triazol-3-yl)-1-methoxy-1-(5-methyl-2-pyrimidinyl)-2-propanesulfonamide], the EC50 was determined as 6.8 nM.

As to `COc1cccc(OC)c1-n1c(NS(=O)(=O)[C@@H](C)[C@H](OC)c2ncc(C)cn2)nnc1-c1csc(C)n1` [Example 338.0, (1R,2S)-N-(4-(2,6-dimethoxyphenyl)-5-(2-methyl-1,3-thiazol-4-yl)-4H-1,2,4-triazol-3-yl)-1-methoxy-1-(5-methyl-2-pyrimidinyl)-2-propanesulfonamide], the EC50 stood at 0.34 nM.

With `COc1cccc(OC)c1-n1c(NS(=O)(=O)[C@@H](C)[C@H](OC)c2ncc(C)cn2)nnc1-c1coc(C)n1` [Example 339.0, (1R,2S)-N-(4-(2,6-dimethoxyphenyl)-5-(2-methyl-1,3-oxazol-4-yl)-4H-1,2,4-triazol-3-yl)-1-methoxy-1-(5-methyl-2-pyrimidinyl)-2-propanesulfonamide], the EC50 worked out at 2.1 nM.

On to `COc1cccc(OC)c1-n1c(NS(=O)(=O)[C@@H](C)[C@H](OC)c2ncc(C)cn2)nnc1-c1nc(C2CC2)cs1` [Example 340.0, (1R,2S)-N-(5-(4-cyclopropyl-1,3-thiazol-2-yl)-4-(2,6-dimethoxyphenyl)-4H-1,2,4-triazol-3-yl)-1-methoxy-1-(5-methyl-2-pyrimidinyl)-2-propanesulfonamide], for which the EC50 came out at 0.26 nM.

For `COc1cccc(OC)c1-n1c(NS(=O)(=O)[C@@H](C)[C@H](OC)c2ncc(C)cn2)nnc1-c1nccs1` [Example 341.0, (1R,2S)-N-(4-(2,6-dimethoxyphenyl)-5-(1,3-thiazol-2-yl)-4H-1,2,4-triazol-3-yl)-1-methoxy-1-(5-methyl-2-pyrimidinyl)-2-propanesulfonamide], the half-maximal effective concentration (EC50) worked out at 0.73 nM.

Regarding `COc1cccc(OC)c1-n1c(NS(=O)(=O)[C@@H](C)[C@H](OC)c2ncc(C)cn2)nnc1-c1cscn1` [Example 342.0, (1R,2S)-N-(4-(2,6-dimethoxyphenyl)-5-(1,3-thiazol-4-yl)-4H-1,2,4-triazol-3-yl)-1-methoxy-1-(5-methyl-2-pyrimidinyl)-2-propanesulfonamide], the EC50 was determined as 0.5 nM.

Turning to `COc1cncc(-c2nnc(NS(=O)(=O)[C@@H](C)[C@H](OC)c3ncc(C)cn3)n2-c2c(OC)cccc2OC)n1` [Example 343.0, (1R,2S)-N-(4-(2,6-dimethoxyphenyl)-5-(6-methoxy-2-pyrazinyl)-4H-1,2,4-triazol-3-yl)-1-methoxy-1-(5-methyl-2-pyrimidinyl)-2-propanesulfonamide], the EC50 is 2.6 nM.

These data come from US11046680B1, “Heteroaryl-substituted triazoles as APJ receptor agonists” (priority 2016, dated 2021).
